Read-outs that look alike come from different tables or passages of the source.
Tests used:
A549 cells = assay: Cytotoxicity assay (alamarBlue cell viability); format: cell-based, Human
Method: (§1) 1.4. Cytotoxicity assay. The cytotoxicity of the compounds was measured using the AlarmBlue cell viability assay (Invitrogen) according to the manufacturer's instructions. Actively dividing A549 cells were incubated with compounds for 48 h. After the incubation the alamarBlue reagent was added to the cells ( 1/10th alamarBlue reagent in culture medium) for an extra 4 h. The 50% cell cytotoxic concentration (CC50) of the molecules was calculated according to Cheng et al.42 The selectivity index (SI) was evaluated as the ratio of CC50 to IC50, where the IC50 is defined as the concentration of compound that inhibits HAdV infection by 50%.

HAdV5-GFP [1] = assay: Plaque assay, HAdV5-GFP in 293β5 cells; format: cell-based; conditions: for Selectivity Index (SI) HAdV5: ratio CC50 to IC50, HAdV5; for inhibition at 10 µM: read-out: Percentage of plaque formation inhibition, HAdV5-GFP, 10 μM, 293β5 cell line
Outline: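 293β5 cells infected with HAdV5-GFP at 0.06 vp/cell for 2 h at 37° C. Then overlaid with agar/EMEM containing compound (5 to 1 μM stated range; screen run at 10 μM). After 7 days at 37° C., GFP plaques imaged and counted relative to DMSO control.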

wild-type HAdV5 = assay: Virus yield reduction (burst assay, TCID50), HAdV5; format: cell-based; conditions: for Virus yield reduction HAdV5: 50 μM, A549 cells, 48 h, yield with DMSO divided by yield with compound
Method: (§2) 1.8. Virus yield reduction. The effect of the active compounds on virus production was evaluated in a burst assay A549 cells were infected with wild-type HAdV5 or HAdV16 (MOI 100) in the presence or absence of 50 μM compounds. After 48 h, cells were harvested and subjected to three rounds of freeze/thaw. Serial dilutions of clarified lysates were titrated on A549 cells and TCID50 values were calculated using an endpoint dilution method.46

[2] = tested on: Acinetobacter baumannii strains resistant to colistine; assay: Screening of inhibition of bacterial growth at 50 μM; format: cell-based; conditions: 5×10^5 CFU/ml, 18 h; for Screening, growth inhibition Ab 11: strain Ab 11, 50 μM; for Screening, growth inhibition Ab 17: strain Ab 17, 50 μM; for Screening, growth inhibition Ab 21R: strain Ab 21R, 50 μM; for Screening, growth inhibition Ab 24: strain Ab 24, 50 μM
Excerpt: (§3) All of the strains used were Acinetobacter baumannii strains resistant to colistine: Resistance (R)≥4 Sensibility (S)≤2—All of these strains have been disclosed in Valencia R, Arroyo L A, Conde M, Aldana J M, Torres M J, Fernandez-Cuenca F, et al. Nosocomial outbreak of infection with pan-drug-resistant Acinetobacter baumannii in a tertiary care university hospital. Infection control and hospital epidemiology. 2009; 30(3):257-63. The specific strains used were the following: 1, 10, 11, 14, 16, 17, 19, 20, 21R, 22P, 24, 99 and 113.
Evaluation of the inhibition of the bacterial growth of the 4 families of piperazines derivatives was performed by using a final concentration of 50 μM of each piperazine derivative in a concentration of 5×10^5 CFU/ml of each strain of A. baumannii in 96-well plates.
These plates were incubated for 18 hours at 37° C.

HAdV5-GFP [3] = assay: Entry assay, HAdV5-GFP in A549 cells (GFP expression); format: cell-based
Method: 1.3. Entry assay. An initial rapid screening was performed using human A549 epithelial cells (3×10^5 cells/well in Corning black wall, clear bottom 96-well plates) infected with HAdV5-GFP (2,000 vp/cell) in the presence of 50 μM of the candidate antiviral compounds. Virus was preincubated with the compounds (individual and mixed) for 45 minutes at 4° C., and then added to cells. A standard infection curve was generated in parallel by infecting cells in the absence of compounds using serial two-fold dilutions of virus. All reactions were done in triplicate. Cells, virus and compounds were incubated for 48 h at 37° C. and 5% CO2. Infection, as measured by HAdV-mediated GFP expression, was analyzed using a Typhoon 9410 imager (GE Healthcare Life Sciences), and quantified with ImageQuantTL (GE Healthcare Life Sciences).

[4] = tested on: Acinetobacter baumannii strains resistant to colistine; assay: Minimal inhibitory concentration (MIC), microdilution in MHBII; format: cell-based; conditions: 5×10^5 CFU/ml, 18 h; for CMI (MIC) Ab 11: strain Ab 11, MHBII; for CMI (MIC) Ab 17: strain Ab 17, MHBII; for CMI (MIC) Ab 21R: strain Ab 21R, MHBII; for CMI (MIC) Ab 24: strain Ab 24, MHBII
Excerpt: as §3
Microdilution in cell medium Mueller Hinton Broth II (MHBII). This technique was carried out solely in those piperazines which presented inhibitory activity in the screening study.
We used decreasing concentrations of each piperazine derivative (from 50 μM -0.05 μM) in a concentration of 5×10^5 CFU/ml of each strain of A. baumannii in 96 well plates. These plates were incubated for 18 hours at a temperature 37° C.

[5] = Cytotoxicity assay (alamarBlue cell viability); format: cell-based, Human; conditions: human, A549 cells, 48 h
Method: as §1

HAdV16-GFP = assay: Plaque assay, HAdV16-GFP in 293β5 cells; format: cell-based; conditions: for Selectivity Index (SI) HAdV16: ratio CC50 to IC50, HAdV16
Method: 1.5. Plaque assay. For low MOI infections, active compounds were further evaluated in a plaque assay. 293β5 cells were seeded in 6-well plates at 4×10^5 cells per well in duplicate for each condition. When cells reached 80-90% confluency, they were infected with HAdV5-GFP or HAdV16-GFP (0.06 vp/cell) and rocked for 2 h at 37° C. The inoculum was removed and the cells were washed once with PBS. The cells were then carefully overlaid with 4 ml/well of equal parts of 1.6% […] Difco Agar Noble (Becton, Dickinson & Co, Sparks, MD) and 2× EMEM (BioWhittaker) supplemented with 2x penicillin/streptomycin, 2× L-glutamine and 10% FBS. The mixture also contained compound in concentrations ranging from 5 to 1 μM. Following incubation for 7 days at 37° C., plates were scanned with a Typhoon 9410 imager (GE Healthcare Life Sciences), and plaques were quantified with ImageJ.43

wild-type HAdV16 = assay: Virus yield reduction (burst assay, TCID50), HAdV16; format: cell-based; conditions: 50 μM, A549 cells, 48 h, yield with DMSO divided by yield with compound
Method: as §2

HCMV (AD169) = assay: HCMV infectivity assay by quantitative PCR; format: cell-based, human cytomegalovirus; conditions: Human betaherpesvirus 5, AD169, MRC5, MRC-5 cells, 72 h, qPCR, read-out: Inhibition of HCMV DNA replication
Method: 1.9. HCMV infectivity assay by quantitative PCR. […] After 72 h of incubation at 37° C., DNA was purified from the cell lysate with the QlAamp DNA Mini Kit (QIAGEN, Valencia, Calif.) following the manufacturer's instructions. TaqMan primers and probes for a region of the US28 gene were designed with the GenScript Real-time PCR (TaqMan) Primer Design software (GenScript). Oligonucleotides sequences were CMV-F: 5′-[…]-3′; CMV-R: 5′-[…]-3′; and CMV-Probe: 5′-[…]-3′. Real-time PCR mixtures consisted of 10 μl the purified DNA, CMV-F at a concentration of 100 nM, CMV-R at a concentration of 300 nM, and CMV-Probe at a concentration of 50 nM in a total volume of 12.5 μl and mixed with 12.5 μl of KAPA PROBE FAST qPCR Master Mix (KAPABiosystems, MA). The PCR cycling protocol was 95° C. for 10 min followed by 40 cycles of 95° C. for 30 sec and 58° C. for 60 sec. Human glyceraldehyde-3-phosphate dehydrogenase (GAPDH) was used as internal control. Oligonucleotides sequences for GAPDH and conditions were those previously reported by Rivera et al.44 For quantification, gene fragment from US28 and GAPDH were cloned into the pGEM-T Easy vector (Promega) and known concentrations of template were used to generate a standard curve in parallel for each experiment. All assays were performed in a C1000 Thermal Cycler apparatus (BioRad).

[6] = A549 cells, 48 h, read-out: CC50

Structure (SMILES)	CC50 (A549 cells)	Inhibition assay in plaque (HAdV5-GFP [1])	YIELD REDUCTION (wild-type HAdV5)	Screening, growth inhibition Ab 11 [2]	Screening, growth inhibition Ab 17 [2]	Screening, growth inhibition Ab 24 [2]	Starting Inhibition assay (HAdV5-GFP [3])	CMI (MIC) Ab 11 [4]	CMI (MIC) Ab 17 [4]	CMI (MIC) Ab 24 [4]	CC50 at 48 h [5]	Selectivity Index (SI) HAdV5 (HAdV5-GFP [1])	IC50 (HAdV5-GFP [1]; read-out: IC50 HAdV5)	inhibition at 10 µM (HAdV5-GFP [1])	IC50 (HAdV16-GFP)	Selectivity Index (SI) HAdV16 (HAdV16-GFP)	Virus yield reduction HAdV16 (wild-type HAdV16)	Virus yield reduction HAdV5 (wild-type HAdV5)	inhibition at 50 µM (HCMV (AD169))	CC50 (A549 cells; [6])	further results
CC1CN(C(=O)Cc2ccccc2)CCN1C(=S)Nc1cc(C(F)(F)F)cc(C(F)(F)F)c1 (centres unmarked) [Vip 634]	130 µM	99.50 ± 1.58	33.42 ± 10.16	<50 µM	<50 µM	<50 µM	94.46 ± 3.87	6.25 µM	3.12 µM	6.25 µM	–	–	–	–	–	–	–	–	–	–	Screening, growth inhibition Ab 14 ([2]; strain Ab 14, 50 μM): <50 µM; Screening, growth inhibition Ab 21R [2]: <50 µM; CMI (MIC) Ab 14 ([4]; strain Ab 14, MHBII): 3.12 µM; CMI (MIC) Ab 21R [4]: 3.12 µM
O=C(c1cc2ccccc2o1)N1CCN(C(=O)Nc2ccc([N+](=O)[O-])cc2)C(c2ccccc2)C1 (centres unmarked) [Compound 59, 4-(Benzofuran-2-carbonyl)-1-[(4-nitrophenyl)aminocarbonyl]-2-phenylpiperazine]	–	–	–	–	–	–	–	–	–	–	193.9 ± 1.68 µM	93.5	2.1 ± 0.1 µM	96 to 100%	3.5 ± 1.03 µM	55.4	34.6 ± 11.6 fold	35.7 ± 13.5 fold	99.9 ± 0.06%	–	–
CC1CN(C(=O)OC(C)(C)C)CCN1C(=S)Nc1ccc(F)cc1 (centres unmarked) [Vip 585]	200 µM	92.91 ± 3.82	12.08 ± 2.78	–	–	–	75.54 ± 13.76	–	–	–	–	–	–	–	–	–	–	–	–	–	–
O=C(c1cc2ccccc2o1)N1CCN(C(=O)Nc2ccc(Cl)cc2)C(c2ccccc2)C1 (centres unmarked) [Compound 60, 4-(Benzofuran-2-carbonyl)-1-[(4-chlorophenyl)aminocarbonyl]-2-phenylpiperazine]	–	–	–	–	–	–	–	–	–	–	194 ± 9.19 µM	79	2.5 ± 1.17 µM	96 to 100%	3.4 ± 0.93 µM	56.9	27.4 ± 16.9 fold	9.9 ± 3.4 fold	98.2 ± 2.1%	–	–
CC1CN(C(=O)Cc2ccccc2)CCN1C(=S)Nc1ccc([N+](=O)[O-])cc1 (centres unmarked) [Vip 628]	210 µM	98.21 ± 3.57	25.59 ± 10.45	<50 µM	<50 µM	<50 µM	60.79 ± 17.31	50 µM	25 µM	50 µM	–	–	–	–	–	–	–	–	–	–	IC50 (HAdV5-GFP [1]; read-out: IC50 plaque): 2.04 µM
N#Cc1ccc(NC(=O)N2CCN(C(=O)c3cc4ccccc4o3)CC2c2ccccc2)cc1 (centres unmarked) [Compound 63, 4-(Benzofuran-2-carbonyl)-1-[(4-cyanophenyl)aminocarbonyl]-2-phenylpiperazine]	–	–	–	–	–	–	–	–	–	–	199.8 ± 0.26 µM	42.7	4.7 ± 0.11 µM	96 to 100%	3.9 ± 1.12 µM	51.2	60.9 ± 12.5 fold	16.9 ± 5.2 fold	99.9 ± 0.05%	199.8 ± 0.26 µM	–
O=C(c1cc2ccccc2o1)N1CCN(C(=O)Nc2ccccc2[N+](=O)[O-])C(c2ccccc2)C1 (centres unmarked) [Compound 64, 4-(Benzofuran-2-carbonyl)-1-[(2-nitrophenyl)aminocarbonyl]-2-phenylpiperazine]	–	–	–	–	–	–	–	–	–	–	132 ± 6.01 µM	53.3	2.5 ± 0.03 µM	96 to 100%	2.3 ± 0.17 µM	57.3	46.5 ± 10.8 fold	34.5 ± 12.6 fold	97.9 ± 0.9%	132 ± 6.01 µM	–
CC1CN(C(=O)Cc2ccccc2)CCN1C(=S)Nc1ccc(C#N)cc1 (centres unmarked) [Vip 635]	175 µM	98.36 ± 2.13	18.39 ± 5.44	<50 µM	<50 µM	<50 µM	60.06 ± 17.39	50 µM	50 µM	50 µM	–	–	–	–	–	–	–	–	–	–	Screening, growth inhibition Ab 21R [2]: <50 µM; CMI (MIC) Ab 21R [4]: 50 µM
CC(C)(C)OC(=O)N1CCN(C(=O)Nc2ccc([N+](=O)[O-])cc2)C(c2ccccc2)C1 (centres unmarked) [Compound 46, 4-tert-Butoxycarbonyl-1-[(4-nitrophenyl)aminocarbonyl]-2-phenylpiperazine]	–	–	–	–	–	–	–	–	–	–	161 ± 45.2 µM	47.3	3.4 ± 0.96 µM	96 to 100%	4.8 ± 1.24 µM	33.6	265.5 ± 29.1 fold	211.7 ± 44.1 fold	99.6 ± 0.39%	161 ± 45.2 µM	–

— patent US20190308956A1, “PIPERAZINE DERIVATIVES AS ANTIVIRAL AGENTS WITH INCREASED THERAPEUTIC ACTIVITY” (SERVICIO ANDALUZ DE SALUD, priority 2016, published 2019)
